Reference: patent publication US5320948A, “Cephalosporin C acylase” (Fujisawa Pharmaceutical Co., Ltd., priority 1990, dated 1994)
Several values for one entry are separate records, joined by “and”; a condition that tells them apart may be missing. Equal values may be shown once. Read-outs that look alike come from different tables or passages of the source.

What was measured:
CC acylase N-176 [1] = assay: Determination of inhibition constants (Ki) for reaction products, GL-7ACA acylase activity; type: biochemical, Pseudomonas diminuta N-176; settings: for mode of inhibition: Lineweaver-Burk plots in absence and presence of inhibitor; for Ki: substrate GL-7ACA, 0.1M glycine buffer pH 9, 37° C., 3 min
Description: Enzyme activity was assayed in the presence of 7-ACA or glutaric acid. For determination of Ki of 7-ACA, reaction mixtures (200 μl) containing 0.1M glycine buffer (pH 9), 0.26-2.08 μmole of GL-7ACA, 0.182-1.0 μmole of 7-ACA and 1 μg of enzyme was incubated at 37° C. for 3 min. For determination of Ki of glutaric acid, reaction mixture (200 μl) containing 0.1M glycine buffer (pH 9), 0.096-2.08 μmole of GL-7ACA, 0.25-0.5 μmole of glutaric acid and 0.5 μg of the enzyme was incubated at 37° C. for 3 min. […] Ki values were calculated from the apparent Michaelis constants (Kmapp), Km and Vmax.

CC acylase N-176 [2] = assay: Substrate profile of CC acylase N-176, HPLC assay; type: biochemical, Pseudomonas diminuta N-176; settings: percentage compared to the activity for GL-7ACA; 2 mg substrate, 20 μg enzyme, pH 9, 50° C., 2 min
Description: (§1) Transformant colonies were picked up and grown overnight at 30° C. in 1 ml of 2% Bouillon (Eiken Chemical Co., Ltd., Japan) supplemented with 1 mM […] (IPTG: Sigma Chemical Co., Ltd., U.S.A.). Cells were harvested by centrifugation and resulting cell pellets were used for assay. Reaction mixture (200 μl) containing 100 mM phosphate (pH 8), 2 mg of GL-7ACA or cephalosporin C Na and cell pellets were thoroughly mixed and incubated for 10 min at 37° C. The reaction was terminated by the addition of 200 μl of 4% acetic acid. Samples were applied to a Inertsil ODS-2 column (4.6 mm×150 mm)(Gasukuro Kogyo Co., Ltd., Japan) and elution was performed with 0.567 g/l of Na2 PO4, 0.36 g/l of KH2 PO4 and 2-4% methanol. 7ACA was detected with absorption at 254 nm.
Enzyme activity was determined by HPLC assay. Reaction mixture (200 μl) containing 100 mM glycine buffer (pH 9), 2 mg of a substrate and 20 μg of the enzyme was incubated at 50° C. for 2 min and the reaction was terminated by addition of 4% acetic acid. The relative enzyme activity was expressed as a percentage compared to the activity for GL-7ACA. To be noted, acylase activity for cephalosporin C was examined also by detecting the production of α-aminoadipic acid with the amino acid analyzer (Hitachi Co., Ltd., Japan).

CC acylase N-176 [3] = assay: Specific enzyme activity, HPLC assay (Vmax and Km by Lineweaver-Burk plot); type: biochemical, Pseudomonas diminuta N-176; settings: substrate of CC acylase N-176, 100 mM glycine buffer pH 9, 37° C., 2 min; for Km: read-out: Michaelis constant (Km)
Description: as §1
The activity of the cephalosporin C acylase was determined by HPLC assay. Reaction mixtures (200 μl) containing 100 mM glycine buffer (pH 9), 1.25-40 mM Cephalosporin C Li and 19 μg of the enzyme is used for assay of cephalosporin C acylase, meanwhile for assay of GL-7ACA acylase activity, reaction mixture (200 μl) containing 100 mM glycine buffer (pH 9), 0.48-10.4 mM GL-7ACA and 0.5 μg of the enzyme is used. Reaction mixtures were incubated for 2 min at 37° C. and the reaction was terminated by addition of 200 μl of 4% acetic acid. Conditions for HPLC were the same as those described in Example 1.3. All assays used later in this section was HPLC method. Specific enzyme activity was expressed as unit per mg of protein. Protein concentrations were determined by Bio-Rad protein assay kit (Bio-Rad Co., Ltd., U.S.A.) with bovine serum albumin as a standard. Maximum specific enzyme activity (Vmax) and Michaelis constant (Km) were calculated from slope and intersection which were obtained by Lineweaver-Burk plot (Cf. M. Dixon and E. C. Webb, Enzymes, Longmans, London, 1958). Maximum specific enzyme activity of CC acylase N-176 was 100 and 3.1 units/mg for GL-7ACA and cephalosporin C, respectively.

CC acylase N-176 [4] = type: biochemical, Pseudomonas diminuta N-176; settings: pH 9
Description: Effect of p-chloromercuribenzoate (pCMB, Sigma Chemical Co., Ltd.), phenylmethylsulfonyl fluoride (PMSF, Sigma) and ethylenediaminetetraacetic acid (EDTA, Nacalai Tesque Inc., Japan) on the activity of CC acylase N-176 was examined as follows. Four μg of CC acylase N-176 was treated at 37° C. for 4 hours with 0.1 or 1.0 mM pCMB, 0.1, 1.0, 2.0 or 5.0 mM PMSF, or 1.0 or 5.0 mM EDTA in 200 μl of 0.1M glycine buffer (pH 9). Residual activity of the treated enzyme was assayed by adding 22 μl of GL-7ACA (100 mg/ml) as a substrate to the mixture The reaction was performed at 37° C. for 2 min. Residual activity was expressed as a percentage compared to the activity of the enzyme treated with blank solution.

[5] = Optimum temperature of the enzyme; type: biochemical; settings: 0.1M glycine buffer pH 9, 2 mg GL-7ACA, 2 min, 25° to 60° C.
Description: Reaction mixture (200 μl) containing 0.1M glycine buffer (pH 9), 2 mg of GL-7ACA and 2 μg of the enzyme were incubated for 2 min at various temperature from 25° to 60° C. The optimum temperature was 50° C.

Optimum pH of the enzyme = type: biochemical; settings: 0.1M buffers pH 6-10, 37° C., 2 min
Description: Reaction mixture (200 μl) containing 0.1M buffer (phosphate buffer between pH 6-8, Tris HCl buffer between pH 7-9 and glycine buffer between pH 8-10), 2 mg of GL-7ACA or 3.3 mg of cephalosporin C Li and 3 μg of the enzyme was used. The reaction was performed at 37° C. for 2 min. Optimum pH for the enzyme was 9.

[6] = Determination of isoelectric point (pI) by analytical isoelectric focusing; type: physicochemical; settings: 4% polyacrylamide gel, Ampholine pH range 3.5-10
Description: Analytical isoelectric focusing of CC acylase N-176 was performed according to the method of Olson et al(Cf.FEMS Microbiol. Lett. 1, 157-162(1977)). Purified acylase preparation was applied on thin layer of 4% polyacrylamide gel containing 2% Ampholine pH range 3.5-10 (Pharmacia LKB Biotechnology, Sweden). The proteins were electrofocused for 2 hours at 100 volts using isoelectric focusing apparatus SJ-1071EC (ATTO Co., Ltd., Japan). After electrofocusing, the gel was stained with Coomassie Brilliant Blue R-250 and the isoelectric point was determined from the calibration curve made with pI markers (Pharmacia LKB Technology) which were run simultaneously with the sample. The pI value of CC acylase N-176 was estimated to be 4.5.

[7] = inhibitor 0.1 mM, treated at 37° C. for 4 hours, substrate GL-7ACA
[8] = inhibitor 1.0 mM, treated at 37° C. for 4 hours, substrate GL-7ACA

In the case of CC(=O)OCC1=C(C(=O)O)N2C(=O)[C@@H](N)[C@H]2SC1 [7-ACA, 7-aminocephalosporanic acid], the mode of inhibition (CC acylase N-176 [1]) is reported as “competitive” and the Ki (CC acylase N-176 [1]) is reported as 1400 µM.

Work on CC(=O)OCC1=C(C(=O)O)N2C(=O)[C@@H](NC(=O)CCCCC(=O)O)[C@H]2SC1 [Adipyl 7ACA, 7(5-carboxypentanamido)-3-acetoxymethyl-3-cephem-4-carboxyli acid] yielded a Relative enzyme activity (CC acylase N-176 [2]) of 19%.

For CC(=O)OCC1=C(C(=O)O)N2C(=O)[C@@H](NC(=O)CCC[C@@H](N)C(=O)O)[C@H]2SC1 [Cephalosporin C], the “Maximum specific enzyme activity (Vmax)” value (CC acylase N-176 [3]) was 3.1 units/mg, the Km (CC acylase N-176 [3]) was 4.8 mM and the Relative enzyme activity (CC acylase N-176 [2]) was 4%.

In the case of CC(=O)OCC1=C(C(=O)O)N2C(=O)[C@@H](NC(=O)Cc3cccs3)[C@H]2SC1 [Cephalothin], the Relative enzyme activity (CC acylase N-176 [2]) is reported as 0.08%.

With O=C(O)CN(CCN(CC(=O)O)CC(=O)O)CC(=O)O [EDTA, ethylenediaminetetraacetic acid] the “Residual enzyme activity (%)” value (CC acylase N-176 [4]) was 91% and 73%.

With CC(=O)OCC1=C(C(=O)O)N2C(=O)[C@@H](NC(=O)CCCC(=O)O)[C@H]2SC1 [Glutaryl 7ACA, 7(4-carboxybutanamdio)-3-acetoxymethyl-3-cephem-4-carboxylic acid] the “Maximum specific enzyme activity (Vmax)” value (CC acylase N-176 [3]) was 100 units/mg, the Km (CC acylase N-176 [3]) was 2.6 mM and the Relative enzyme activity (CC acylase N-176 [2]) was 100%.

CC(=O)N[C@H](CCCC(=O)N[C@@H]1C(=O)N2C(C(=O)O)=C(COC(C)=O)CS[C@H]12)C(=O)O [N-Acetylcephalosporin C] gave a Relative enzyme activity (CC acylase N-176 [2]) of 0.1%.

CC(=O)OCC1=C(C(=O)O)N2C(=O)[C@@H](NC(=O)CCC[C@@H](NC(=O)c3ccccc3)C(=O)O)[C@H]2SC1 [N-Benzyoylcephalosporin C, N-benzoylcephalosporin C] gave a Relative enzyme activity (CC acylase N-176 [2]) of 0.0003%.

With O=S(=O)(F)Cc1ccccc1 [PMSF, phenylmethylsulfonyl fluoride] the “Residual enzyme activity (%)” value (CC acylase N-176 [4]; [7]) was 96%, the “Residual enzyme activity (%)” value (CC acylase N-176 [4]; [8]) was 91% and the “Residual enzyme activity (%)” value (CC acylase N-176 [4]; inhibitor 2.0 mM, treated at 37° C. for 4 hours, substrate GL-7ACA) was 79%. For the same molecule, the “Residual enzyme activity (%)” value (CC acylase N-176 [4]; inhibitor 5.0 mM, treated at 37° C. for 4 hours, substrate GL-7ACA) was 62%.

Work on CC(=O)OCC1=C(C(=O)O)N2C(=O)[C@@H](NC(=O)CCC(=O)O)[C@H]2SC1 [Succinyl 7ACA, 7(3-carboxypropionamido)-3-acetoxymethyl-3-cephem-4-carboxylic acid] yielded a Relative enzyme activity (CC acylase N-176 [2]) of 32%.

For O=C(O)CCCC(=O)O [glutaric acid], the mode of inhibition (CC acylase N-176 [1]) was “competitive” and the Ki (CC acylase N-176 [1]) was 2500 µM.

In the case of O=C(O)c1cc[c]([Hg][Cl])cc1 [pCMB, p-chloromercuribenzoate], the “Residual enzyme activity (%)” value (CC acylase N-176 [4]; [7]) is reported as 7.8% and the “Residual enzyme activity (%)” value (CC acylase N-176 [4]; [8]) is reported as 4.6%.

B1: CC acylase N-176: new cephalosporin C acylase derived from Pseudomonas diminuta N-176, composed of α and β subunits (protein)
chain: MTMAANTDRAVLQAALPPLSGSLPIPGLSASVRVRRDAWGIPHIKASGEADAYRALGFVHSQDRLFQMELTRRKALGRAAEWLGAEAAEADILVRRLGMEKVCRRDFEALGVEAKDMLRAYVAGVNAFLASGAPLPVEYGLLGAEPEPWEPWHSIAVMRRLGLLMGSVWFKLWRMLALPVVGAANALKLRYDDGGRDLLCIPPGAEADRLEADLATLRPAVDALLKAMGGDASDAAGGGSNNWAVAPGRTATGRPILAGDPHRVFEIPGMYAQHHLACDRFDMIGLTVPGVPGFPHFAHNGKVAYCVTHAFMDIHDLYLEQFAGEGRTARFGNDFEPVAWSRDRIAVRGGADREFDIVETRHGPVIAGDPRDGAALTLRSVQFAETDLSFDCLTRMPGASTVAQLYDATRGWGLIDHNLVAGDVAGSIGHLVRARVPSRPRENGWLPVPGWSGEHEWRGWIPHEAMPRVIDPPGGIIVTANNRVVADDHPDYLCTDCHPPYRAERIMKRLVANPAFAVDDAAAIHADTLSPHVGLLRRRLEALGARDDSAAEGLRQMLVAWDGRMDAASEVASAYNAFRRALTRLVTDRSGLEQAISHPFAAVAPGVSPQGQVWWAVPTLLRDDDAGMLKGWSWDQALSEALSVASQNLTGRSWGEEHRPRFTHPLATQFPAWAGLLNPASRPIGGDGDTVLANGLVPSAGPQATYGALSRYVFDVGNWDNSRWVVFHGASGHPASAHYADQNAPWSDCAMVPMLYSWDRIAAEAVTSQELVPA
With B1 the optimum temperature [5] was 50 °C, the “Optimum pH” value (Optimum pH of the enzyme) was 9 and the pI value [6] was about 4.5.
